Key:
[1] = Benedict's Test for reducing sugars; format: physicochemical
Text: As used herein, “reducing sugar” means any sugar that either has an aldehyde group or is capable of forming an aldehyde group in solution through isomerism, and that gives a positive result in the Benedict's test. An aldehyde group is —C(═O)H. The aldehyde group is important in view of reacting with and crosslinking the hair. The Benedict's test involves employment of the Benedict's solution. The Benedict's solution is available from Sigma Aldrich as ‘Benedict's Reagent’, which comprises sodium carbonate, copper sulphate pentahydrate and 2,5-difluorotoluene. In the Benedict's test, 1 mL of Benedict's solution is added to a 20 mL of 5% aqueous solution comprising a dissolved test compound. Benedict's solution contains blue copper(II) ions (Cu^2+). The solution is heated to 80° C. for 15 min and the resulting colour change is noted. The cupric ion of the Benedict's solution is reduced to cuprous ion by the aldehyde of the sugar. A positive Benedict's test result is confirmed with a change in colour as cupric ions (Cu^2+) are converted to cuprous ions i.e. reduced to copper(I) ions (Cu^+). These are precipitated as red copper(I) oxide which is insoluble in water. The test is also designed for longer heating time and higher temperature to note any colour change. The solution may range in colour (with increasing amounts of reducing sugar) from green, through yellow and orange, to red. […] The wavelength of light reflected by the solution will change with the colour. In at least one embodiment, a positive Benedict's test result is when the solution emits light not peaking with a wavelength in the range of 450 nm to 495 nm. In at least one embodiment, a positive Benedict's test result is when the solution emits light peaking with a wavelength in the range of 620 nm to 750 nm. This can be measured using a spectrophotometer.
In the art, the Benedict's reagent is used as a test for the presence of reducing sugars. This includes all monosaccharides and many disaccharides, including lactose and maltose. Even more generally, Benedict's test will detect the presence of aldehydes, and alpha-hydroxy-ketones, including those that occur in certain ketoses. Thus, although fructose, a ketose, is not strictly a reducing sugar, it is an alpha-hydroxy-ketone, it gives a positive test because it is converted to the aldoses glucose and mannose by the base in the reagent. The copper sulphate in Benedict's solution reacts with reducing sugars. One litre of Benedict's reagent can be prepared from 100 g of anhydrous sodium carbonate, 173 g of sodium citrate and 17.3 g of copper(II) sulfate pentahydrate. Benedict's Reagent provides a quantitative test for reducing sugars along with qualitative test. The colour of the obtained precipitate gives an idea about the quantity of sugar present in the solution. A greenish precipitate indicates about 0.5% concentration; yellow precipitate indicates 1% concentration; orange indicates 1.5% and red indicates 2% or higher concentration. A positive result in the Benedict's test can be recognised for a compound by a 5% (weight/weight) solution of compound in water as a red colouring. The aldehyde group of the sugar allows the sugar to act as a reducing agent, for example in the Benedict's test.

[2] = as known in the art; converted to aldoses by the base in the reagent; cited from earlier work
[3] = 80° C., 15 min, 5% aqueous solution of test compound

| SMILES | Assessment of sugars using the Benedict's Test [1, 3] | Assessment of sugars using the Benedict's Test ([1]; 100° C., 40 min) | Benedict's test result [2] |
| --- | --- | --- | --- |
| O=C[C@@H](O)[C@H](O)[C@H](O)CO [Arabinose] | Positive | Positive | – |
| O=C(CO)[C@@H](O)[C@H](O)[C@H](O)CO [Fructose] | Positive | Positive | positive |
| CO[C@H]1OC(CO)[C@H](O)[C@@H](O)[C@@H]1O (stereo partly shown) [Methyl glucoside] | Negative | Positive | – |
| O=C[C@H](O)[C@H](O)[C@H](O)CO [Ribose] | Positive | Positive | – |
| OC[C@H]1O[C@@](CO)(O[C@H]2O[C@H](CO)[C@@H](O)[C@H](O)[C@H]2O)[C@@H](O)[C@@H]1O [Sucrose] | Negative | Positive | – |
| O=C[C@H](O)[C@@H](O)[C@H](O)CO [Xylose] | Positive | Positive | – |

Reference: US11154480B2, “Shaping keratin fibres using a sugar” (The Procter & Gamble Company, priority 2013, dated 2021)
